The record followed here is publication PMC5216742, “Discovery and characterization of a novel potent type II native and mutant BCR-ABL inhibitor (CHMFL-074) for Chronic Myeloid Leukemia (CML)” (Oncotarget, 2016).

Values joined by “and” are separate entries in the source; they are usually repeats but may differ in a detail not shown here. Equal values may be shown once.

In assay [1] the target is T1, ABL1(M351T)-phosphorylated (Homo sapiens, UniProt P00519, M351T).
T1 construct: purchased DiscoveRx (KinomeScan service)
The assay is described as follows: KinomeScan profiling. The assay is classed as binding. The note with it: 1 µM CHMFL-074; read-out: % Control.

Assay [2] concerns the target T2, ABL1(Q252H)-nonphosphorylated (Homo sapiens, UniProt P00519, Q252H).
T2 construct: purchased DiscoveRx (KinomeScan service)
The assay is described as follows: KinomeScan profiling. To be noted: 1 µM CHMFL-074; read-out: % Control. The assay is classed as binding.

In assay [3] the target is T3, ABL1(Y253F)-phosphorylated (Homo sapiens, UniProt P00519, Y253F).
T3 construct: purchased DiscoveRx (KinomeScan service)
The assay is described as follows: KinomeScan profiling. The format is binding. The note with it: 1 µM CHMFL-074; read-out: % Control.

In assay [4] the target is T4, DDR1 (Homo sapiens, UniProt Q08345).
T4 construct: purchased DiscoveRx (KinomeScan service)
T4 sequence (Q08345 19-913): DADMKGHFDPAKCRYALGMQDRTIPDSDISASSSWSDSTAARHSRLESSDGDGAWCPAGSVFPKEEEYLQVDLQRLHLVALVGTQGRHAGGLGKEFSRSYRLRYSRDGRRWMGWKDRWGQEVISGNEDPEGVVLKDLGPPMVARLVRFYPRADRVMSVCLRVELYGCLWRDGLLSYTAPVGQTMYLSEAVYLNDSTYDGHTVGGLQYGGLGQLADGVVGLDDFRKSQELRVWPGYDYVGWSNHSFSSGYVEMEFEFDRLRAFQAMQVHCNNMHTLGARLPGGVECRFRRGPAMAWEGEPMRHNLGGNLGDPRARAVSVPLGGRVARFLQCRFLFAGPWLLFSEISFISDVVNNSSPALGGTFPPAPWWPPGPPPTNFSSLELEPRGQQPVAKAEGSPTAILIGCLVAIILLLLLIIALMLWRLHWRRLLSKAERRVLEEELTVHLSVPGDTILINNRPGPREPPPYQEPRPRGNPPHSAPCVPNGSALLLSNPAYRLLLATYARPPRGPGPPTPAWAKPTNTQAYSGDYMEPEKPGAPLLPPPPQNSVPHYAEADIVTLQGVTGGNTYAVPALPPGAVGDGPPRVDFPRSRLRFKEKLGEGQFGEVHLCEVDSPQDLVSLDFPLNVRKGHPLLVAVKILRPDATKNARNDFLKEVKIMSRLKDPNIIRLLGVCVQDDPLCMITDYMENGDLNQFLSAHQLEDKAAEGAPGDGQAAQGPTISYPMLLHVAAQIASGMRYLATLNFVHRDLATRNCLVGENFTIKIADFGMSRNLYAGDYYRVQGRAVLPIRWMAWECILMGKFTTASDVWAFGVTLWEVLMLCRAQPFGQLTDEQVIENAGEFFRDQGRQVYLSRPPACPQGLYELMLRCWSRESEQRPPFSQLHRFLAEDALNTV
The assay is described as follows: KinomeScan profiling. The assay is classed as binding. To be noted: 1 µM CHMFL-074; read-out: % Control.

Assay [5] concerns the target T5, ABL1 kinase (Homo sapiens, UniProt P00519).
T5 construct: A construct encoding c-ABL residues 229–500 with a His tag; made in house; host or cells: SF9 insect cells (baculovirus, pFASTHTA)
The assay is described as follows: Microscale thermophoresis (MST) binding Kd assay. To be noted: binding Kd against ABL1 kinase. Here is the method: A construct encoding c-ABL residues 229–500 with a His tag was cloned into baculovirus expression vector pFASTHTA. The protein was expressed by infecting SF9 cells with high titer viral stocks for 48 hours. Cells were harvested and lysed in 30 mM Tris pH 7.4, 150 mM NaCl, 3 mM KCl, 10% glycerol, 1 mM PMSF, 2 mM TCEP, 1 mM ADP, 20 mM Imidazole. The supernatant was loaded to Ni-NTA Column (QIAGEN, 1018244). Then the proteins were gradient washed using the same buffer with 50 mM, 100 mM imidazole, then the ABL protein was eluted with Elution buffer (20 mM Tris, 500 mM NaCl, 1% glycerol, 1 mM TCEP, 0.5 mM ADP, 300 mM Imidazole, pH 8.0). The eluted protein was loaded on desalt column PD-10(GE) to change the buffer to 20 mM Tris, 500 mM NaCl, 1% glycerol, 2 mM TCEP, pH 8.0. The protein was concentrated to 1 mg/ml and aliquots were frozen and stored at −80 °C.
The Kd was measured using the Monolith NT.115 from Nanotemper Technologies. Proteins were fluorescently labeled according to the manufacturer's protocol. […] The sample was loaded into the NanoTemper glass capillaries and microthermophoresis carried out using 20% LED power and 30% MST Power. KD were calculated using the mass action equation via the NanoTemper software from duplicate reads of triplicate experiments.

Assay [6] deals with HL-60. In words: Anti-proliferation, intact cancer cell lines. To be noted: Homo sapiens, HL-60, 72 h. The format is cell-based. Here is the method:
(§1) The K562 (CML), KU812 (CML), MEG-01 (CML), MV4-11 (AML), MOLM14 (AML), U937 (AML), REC-1 (Human B-cell lymphoma cell), HL-60 (Human promyelocytic leukemia cells), MEC-1(CLL), CHL (Hamster lung cell), CHO (Hamster ovary cell) cell lines were obtained from American Type Culture Collection (Manassas, VA). All the cells were grown in a humidified incubator (Thermo, USA) at 37°C under 5% CO2. CHO cells were maintained in DMEM supplemented with 10% FBS, 1% penicillin/strepto-mycin. MV4-11 (AML) were grown in IMDM supplemented with 10% FBS, 1% penicillin/streptomycin. […] For suspension cells, cells were collected by spinning down at 800 rpm/min for 5 min before use.
(§2) A density of 1 × 10^4 to 2.5 × 10^4 cells/mL cells were mixed with various concentrations of compounds then 100 μL suspension was added to each well and incubated for 72 hours. Cell viability was determined using the CellTiter-Glo assay (Promega, USA) or CCK-8 assay (Beboy, China). Both assays were performed according to the manufacturer instructions. For CellTiter-Glo assay, luminescence was determined in a multi-label reader (Envision, PerkinElmer, USA). […] Data were normalized to control group (DMSO). GI50 were calculated using Prism 6.0 (GraphPad Software, San Diego, CA).

Assay [7] relates to K562. In words: Anti-proliferation, intact cancer cell lines. The assay is classed as cell-based. To be noted: Homo sapiens; K562 (CML), 72 hours. Here is the method:
as §1, §2

Assay [8] deals with KU812. The assay is described as follows: Anti-proliferation, intact cancer cell lines. The format is cell-based. To be noted: Homo sapiens; KU812 (CML), 72 hours. The protocol: as §1, §2
Assay [9] concerns MEC-1. In words: Anti-proliferation, intact cancer cell lines. The assay is classed as cell-based. The note with it: Homo sapiens, MEC1, 72 h. Here is the method:
as §1, §2

Assay [10] deals with MEG-01. In words: Anti-proliferation, intact cancer cell lines. The assay is classed as cell-based. To be noted: Homo sapiens, MEG-01, 72 h. Here is the method:
as §1, §2

Assay [11] has as its system REC-1. In words: Anti-proliferation, intact cancer cell lines. The assay is classed as cell-based. The note with it: Homo sapiens, Rec1, 72 h. Here is the method:
as §1, §2

Assay [12] concerns U937. The assay is described as follows: Anti-proliferation, intact cancer cell lines. The format is cell-based. The note with it: Homo sapiens, U-937, 72 h. Here is the method: as §1, §2
Assay [13] has as its system K562. In words: Colony formation assay. The assay is classed as cell-based. The note with it: Homo sapiens. The protocol:
(§3) In brief, 1 mL of 3% agarose combined with 1 mL KU812, MEG01, or K562 growth media was used as the bottom agar in a 6-well plate. 800 cells in 1.7 mL growth media was combined with 0.3 ml of 3% agarose solution and plated on top of the bottom layer. Cells were maintained in a humidified 5% CO2 incubator at 37°C for 15 days, and continuously treated with serially diluted CHMFL-074 in a soft agar medium. On the 15th day, the number of colonies in each well were counted and each measurement was performed in triplicate.

Assay [14] concerns KU812. The assay is described as follows: Colony formation assay. To be noted: Homo sapiens. The format is cell-based. The protocol:
as §3

For assay [15], the system named is MEG-01. The assay is described as follows: Colony formation assay. The format is cell-based. To be noted: Homo sapiens. Here is the method:
as §3

The subject of assay [16] is BCR-ABL positive CML patient primary cells. In words: Patient primary cell proliferation assay. The format is cell-based. To be noted: Homo sapiens, read-out: half effective inhibitory concentrations. The protocol:
Mononuclear cells were isolated from CML patients or healthy donors by density-gradient centrifugation through Ficoll (Beijing Solarbio Science & Technology Co., Ltd., Beijing, China) at 400 g for 30 min, followed by two washes in 1× phosphate-buffered saline. Cells were then cultured in liquid culture (RPMI1640, supplemented with 20% FBS). All blood samples from CML patients and healthy donors were obtained through written consent under approval of the Chinese Academy of Sciences Institutional Review Board. The ethics committees approved the consent Procedure. CML primary patient cells were tested in liquid culture (RPMI1640, supplemented with 20% FBS) in the presence of different concentrations of CHMFL-074. The trypan blue exclusion assay was used for quantification of cells for seeding for before Cell-Titer Glo assays (Promega, USA). The Cell-Titer Glo assay was used for proliferation studies and carried out according to manufacturer's instructions. Cell viability is reported as percentages of control (untreated) cells.

Regarding `Cc1ccc(NC(=O)c2ccc(CN3CCN(C)CC3)c(C(F)(F)F)c2)cc1OC1CCN(C(=O)c2cccnc2)CC1` [CHMFL-074], the remaining binding at 1 µM in assay [1] is 1%; in [2], 0.75%; in assay [3], 0.3%; in assay [4], less than 1%. Moreover, the Kd in assay [5] was 0.024 µM and 0.0242 µM. For the same compound, the GI50 in [6] was greater than 10 µM; in assay [7] it was 0.056 µM; in [8], 0.057 µM; in [9] it was greater than 10 µM; in assay [10], 0.018 µM; in assay [11], greater than 10 µM. This compound had a GI50 in assay [12] greater than 10 µM. Further, the EC50 in assay [13] (360 h, K562, soft agar, 15 days) turned out to be 0.004 µM; in [14] (360 h, KU812, soft agar, 15 days), 0.008 µM; in assay [15] (360 h, MEG-01, soft agar, 15 days) it was 0.012 µM. Also, the IC50 in [13] (K562, read-out: anti-colony formation IC50) is 0.004 µM; in assay [14] (KU812, read-out: anti-colony formation IC50) it was 0.008 µM; in assay [15] (MEG-01, read-out: anti-colony formation IC50), 0.012 µM; in [16], 0.3 to 1 µM.
